Molecules are shown by their SMILES. pEC50: −log10 of the molar value.

One assay has as its system A/Henan/Jinshui/147/2007. Put plainly: 3-day CP assay in MDCK cells. The format is cell-based. As to conditions: Influenza A virus.
For another assay, the system named is B/Lee/40. Put plainly: 3-day CP assay in MDCK cells. The format is cell-based. The note with it: Influenza B virus.
Another assay deals with A/California/07/2009. Kind of assay: 3-day CP assay in MDCK cells. The format is cell-based. As to conditions: Influenza A virus, H1N1, MDCK, in Sus scrofa.
Another assay deals with A/NWS/33. Kind of assay: 3-day CP assay in MDCK cells. The format is cell-based, influenza A.
The next assay concerns A/VN/1203/2004 (H5N1). Kind of assay: microbe, parasite or virus in culture. The format is cell-based. As to conditions: Influenza A virus, H5N1, MDCK.
For another assay, the system named is A/New York/18/2009. Put plainly: 3-day CP assay in MDCK cells. Format: cell-based. The note with it: Influenza A virus.
A further assay has as its system A/Aichi/2/68. Kind of assay: 3-day CP assay in MDCK cells. The format is cell-based. The note with it: Influenza A virus.
The test system of a further assay is A/Port Chalmers/1/73. Put plainly: 3-day CP assay in MDCK cells. Format: cell-based. The note with it: Influenza A virus.

Consider `CC(C)(C)[C@@H](CC(=O)O)Nc1nc(-c2c[nH]c3ncc(F)cc23)ncc1F` [Compound (1)], for which the pEC50 is 7.72 in the assay with A/Henan/Jinshui/147/2007; below 5.00 in the assay on B/Lee/40; 8.40 in the assay with A/California/07/2009; 8.77 in the assay on A/NWS/33; 8.38 in the assay with A/VN/1203/2004 (H5N1); 8.85 with A/New York/18/2009. Besides, the pEC50 is 8.36 with A/Aichi/2/68 and 8.64 in the assay on A/Port Chalmers/1/73.
